The values that follow come from patent publication US7781592B2, “Thione derivative, method for the preparation thereof, and pharmaceutical composition containing the same” (CJ Cheiljedang Corporation, priority 2003, dated 2010).

Usually inhibition stands for the share of the control response that was lost under treatment. As a reminder, the melting point is the temperature, or range, at which the solid turns liquid.

The target of one data set is T1, COX-1 (Homo sapiens, UniProt P23219).
T1 construct: host or cells: U-937 human lymphoma cells
T1 sequence (P23219 24-599): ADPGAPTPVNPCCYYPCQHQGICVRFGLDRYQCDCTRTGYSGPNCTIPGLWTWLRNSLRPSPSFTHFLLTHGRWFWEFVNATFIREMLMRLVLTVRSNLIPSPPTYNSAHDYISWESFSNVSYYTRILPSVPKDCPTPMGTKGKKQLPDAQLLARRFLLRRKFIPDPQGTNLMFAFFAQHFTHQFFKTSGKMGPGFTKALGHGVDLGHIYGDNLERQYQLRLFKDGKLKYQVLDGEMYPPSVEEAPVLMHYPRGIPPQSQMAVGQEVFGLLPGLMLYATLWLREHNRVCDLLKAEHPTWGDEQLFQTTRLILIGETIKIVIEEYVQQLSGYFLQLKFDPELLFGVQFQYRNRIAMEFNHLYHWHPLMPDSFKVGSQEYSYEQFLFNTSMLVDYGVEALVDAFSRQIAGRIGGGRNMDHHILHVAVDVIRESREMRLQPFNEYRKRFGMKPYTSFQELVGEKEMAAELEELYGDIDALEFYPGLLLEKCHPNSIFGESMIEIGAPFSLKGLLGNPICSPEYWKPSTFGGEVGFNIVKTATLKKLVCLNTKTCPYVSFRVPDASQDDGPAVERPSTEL
In words: Assay for the COX-1 inhibitory activity using U-937 (PGE2 inhibition). It is filed as cell-based. The settings on record: test compound 1 μM, U-937 human lymphoma cells, arachidonic acid substrate, PGE2 quantified; for inhibition at 1 µM: read-out: Cyclooxygenase (COX) Inhibition (%) COX-1 (1 μM). How it is done: The collected cells were diluted with HBSS (×1, Hank's balanced salt solution) to a concentration of 1×10^6 cells/ml. 1 ml of the dilute cell solution was placed into each well of 12-well plates. 5 μl of 1 μM solution of a test compound in DMSO and 5 μl of DMSO as a control were added to the wells. The wells were incubated in CO2 incubator at 37° C. for 15 minutes. Separately, 10 mM stock solution of arachidonic acid in ethanol was diluted ten times in ethanol to prepare 1 mM solution of arachidonic acid. Arachidonic acid acts as a substrate. 10 μl of the 1 mM solution of arachidonic acid was added to each well and incubated at CO2 incubator at 37° C. for 30 minutes. The cell solution of each well was placed in a centrifuge test tube and centrifuged at 10,000 rpm at 4° C. for 5 minutes. The concentration of PGE2 in the collected cells and the supernatant was quantified by means of a monoclonal kit (Cayman Chemicals). The percentages of PGE2 inhibition in a group of the test compound-treated cells in relation to a group of the DMSO-treated cells were calculated. Based on the calculated values, the COX-1 inhibitory activities were evaluated.
(§1) The percentages of the COX inhibition were calculated according to the following equation: % Inhibition=(concentration of PGE2 in test compound-untreated sample−concentration of PGE2 in test compound-treated sample)/(concentration of PGE2 in test compound-untreated sample)×100

A further data set concerns the target T2, COX-2 (Mus musculus, UniProt Q05769).
T2 construct: host or cells: RAW 264.7 cells, pre-treated with aspirin, then induced with interferon and LPS
T2 sequence (Q05769 18-604): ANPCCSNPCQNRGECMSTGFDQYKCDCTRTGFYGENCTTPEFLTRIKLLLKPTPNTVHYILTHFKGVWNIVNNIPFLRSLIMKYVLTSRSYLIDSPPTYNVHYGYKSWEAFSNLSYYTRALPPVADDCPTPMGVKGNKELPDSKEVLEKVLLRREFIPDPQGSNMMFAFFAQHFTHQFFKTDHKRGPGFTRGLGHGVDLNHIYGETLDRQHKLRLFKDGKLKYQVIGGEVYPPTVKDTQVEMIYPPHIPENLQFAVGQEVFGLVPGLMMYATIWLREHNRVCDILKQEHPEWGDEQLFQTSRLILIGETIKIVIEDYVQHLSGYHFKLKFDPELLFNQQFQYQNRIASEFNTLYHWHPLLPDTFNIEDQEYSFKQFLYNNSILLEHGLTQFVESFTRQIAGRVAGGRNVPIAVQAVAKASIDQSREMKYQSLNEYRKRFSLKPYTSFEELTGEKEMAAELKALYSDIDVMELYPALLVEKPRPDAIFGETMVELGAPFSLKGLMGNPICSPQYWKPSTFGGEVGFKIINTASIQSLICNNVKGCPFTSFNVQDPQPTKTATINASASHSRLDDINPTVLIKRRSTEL
In words: Assay for the COX-2 inhibitory activity using Raw 264.7 cell line (PGE2 inhibition). It is filed as cell-based. Particulars: test compound 30 nM, RAW 264.7 cells, aspirin pre-treated, interferon + LPS 18 hours, PGE2 by EIA; for inhibition at 0.03 µM: RAW264.7, read-out: Cyclooxygenase (COX) Inhibition (%) COX-2 (30 nM). How it is done:
Each well was treated with 250 μM of aspirin and incubated at 37° C. for 2 hours. After the culture media were replaced with new culture media, the new culture media were treated with a test compound (30 nM) and incubated for 30 minutes. Then, each well was treated with interferon ? (100 units/ml) and lipopolysaccharide (LPS, 100 ng/ml) and incubated for 18 hours. The culture media were transferred to other test tubes. The concentration of PGE2 was quantified by means of the EIA kit (Cayman Chemicals).
as §1

`CC(=O)Oc1ccc(-c2c(-c3ccc(S(C)(=O)=O)cc3)ssc2=S)cc1` [Example 69, Acetic acid 4-[5-(4-methanesulfonylphenyl)-3-thioxo-3H-[1,2]dithiol-4-yl]phenyl ester] yielded a melting point of 241 to 243 °C. In addition, the inhibition at 1 µM on COX-1 is 24.8%. The inhibition at 0.03 µM at COX-2 turned out to be 21.3%.

As to `COc1cccc(-c2c(-c3ccc(S(C)(=O)=O)cc3)ssc2=S)c1` [Example 53, 5-(4-methanesulfonylphenyl)-4-(3-methoxyphenyl)-[1,2]dithiol-3-thione], the melting point is 212 to 213 °C. The inhibition at 1 µM at COX-1 turned out to be 26.7%. For the same molecule, at COX-2, the inhibition at 0.03 µM worked out at 21.6%.

Consider `CS(=O)(=O)c1ccc(-c2ssc(=S)c2-c2ccc(F)cc2)cc1` [Example 50, 4-(4-fluorophenyl)-5-(4-methanesulfonylphenyl)-[1,2]dithiol-3-thione], for which the melting point was 195 to 197 °C. Moreover, the inhibition at 1 µM at COX-1 turned out to be 27.2%. Also, the inhibition at 0.03 µM at COX-2 stood at 19.6%.

In turn, `COc1ccc(OC)c(-c2c(-c3ccc(S(C)(=O)=O)cc3)ssc2=S)c1` [Example 51, 4-(2,5-dimethoxyphenyl)-5-(4-methanesulfonylphenyl)-[1,2]dithiol-3-thione] had a melting point of 176 to 177 °C. For the same molecule, at COX-1, the inhibition at 1 µM was 27.6%. Also, the inhibition at 0.03 µM on COX-2 turned out to be 19.8%.

The molecule `COc1ccc(-c2c(-c3ccc(S(C)(=O)=O)cc3)ssc2=S)cc1` [Example 43, 5-(4-methanesulfonylphenyl)-4-(4-methoxyphenyl)-[1,2]dithiol-3-thione] gave a melting point of 220 to 222 °C. In addition, the inhibition at 1 µM at COX-1 was 19.3%. Also, on COX-2, the inhibition at 0.03 µM worked out at 38.4%.

Take `CS(=O)(=O)c1ccc(-c2ssc(=S)c2-c2cccc(C(F)(F)F)c2)cc1` [Example 55, 5-(4-methanesulfonylphenyl)-4-(3-trifluoromethylphenyl)-[1,2]dithiol-3-thione]: the melting point was 188 to 189 °C. In addition, the inhibition at 1 µM on COX-1 amounted to 27.6%. For the same molecule, at COX-2, the inhibition at 0.03 µM was 20.2%.

`CS(=O)(=O)c1ccc(-c2ssc(=S)c2-c2ccccc2)cc1` [Example 42, 5-(4-methanesulfonylphenyl)-4-phenyl-[1,2]dithiol-3-thione] registered a melting point of 200 to 202 °C. The inhibition at 1 µM on COX-1 was 24.5%. The inhibition at 0.03 µM on COX-2 was determined as 20.1%.

`CS(=O)(=O)c1ccc(-c2ssc(=S)c2-c2ccc(Cl)cc2)cc1` [Example 45, 4-(4-chlorophenyl)-5-(4-methanesulfonylphenyl)-[1,2]dithiol-3-thione] showed a melting point of 233 to 235 °C. Moreover, on COX-1, the inhibition at 1 µM is 19.6%. For the same molecule, the inhibition at 0.03 µM at COX-2 was 22.1%.

Consider `CS(=O)(=O)c1ccc(-c2ssc(=S)c2-c2ccccc2C(F)(F)F)cc1` [Example 44, 5-(4-methanesulfonylphenyl)-4-(2-trifluoromethylphenyl)-[1,2]dithiol-3-thione], for which the melting point was in the range of 240 to 242 °C. Moreover, the inhibition at 1 µM at COX-1 was 25.5%. Further, the inhibition at 0.03 µM on COX-2 was 20.1%.

Turning to `Cc1ccc(-c2c(-c3ccc(S(C)(=O)=O)c(F)c3)ssc2=S)cc1` [Example 77, 5-(3-fluoro-4-methanesulfonylphenyl)-4-p-toryl-[1,2]dithiol-3-thione], on COX-1, the “Cyclooxygenase (COX) Inhibition (%) COX-1 (1 μM)” value was determined as 15.2%. For the same molecule, the “Cyclooxygenase (COX) Inhibition (%) COX-2 (30 nM)” value at COX-2 worked out at 31.5%.

Regarding `Cc1ccc(-c2c(-c3ccc(F)c(F)c3)ssc2=S)cc1` [Example 74, 5-(3,4-difluorophenyl)-4-p-toryl-[1,2]dithiol-3-thione], the melting point fell in the range of 140 to 142 °C. In addition, the inhibition at 1 µM on COX-1 is 26.5%. Besides, on COX-2, the inhibition at 0.03 µM was 19.2%.

Molecule `CC(C)Oc1ccc(-c2c(-c3ccc(S(C)(=O)=O)cc3)ssc2=S)cc1` [Example 67, 4-(4-isopropoxylphenyl)-5-(4-methanesulfonylphenyl)-[1,2]dithiol-3-thione] had a melting point of 179 to 180 °C. Besides, the inhibition at 1 µM at COX-1 amounted to 27.5%. For the same molecule, on COX-2, the inhibition at 0.03 µM amounted to 23.3%.

In turn, `CS(=O)(=O)c1ccc(-c2ssc(=S)c2-c2ccc(Br)cc2)c(Cl)c1` [Example 72, 4-(4-bromophenyl)-5-(2-chloro-4-methanesulfonylphenyl)-[1,2]dithiol-3-thione] showed a melting point of 194 to 195 °C. Besides, on COX-1, the inhibition at 1 µM came out at 28.1%. The inhibition at 0.03 µM at COX-2 stood at 19.3%.

Consider `Cc1ccccc1-c1c(-c2ccc(S(C)(=O)=O)cc2)ssc1=S` [Example 56, 5-(4-methanesulfonylphenyl)-4-o-toryl-[1,2]dithiol-3-thione], for which, on COX-1, the “Cyclooxygenase (COX) Inhibition (%) COX-1 (1 μM)” value was determined as 20.6%. The “Cyclooxygenase (COX) Inhibition (%) COX-2 (30 nM)” value on COX-2 is on record as 25.6%.

For the molecule `CS(=O)(=O)c1ccc(-c2ssc(=S)c2-c2ccc(Cl)c(Cl)c2)cc1` [Example 46, 4-(3,4-dichlorophenyl)-5-(4-methanesulfonylphenyl)-[1,2]dithiol-3-thione], the inhibition at 1 µM at COX-1 is 24.6%. The inhibition at 0.03 µM at COX-2 is 21%.

For `CS(=O)(=O)c1ccc(-c2ssc(=S)c2-c2ccc3ccccc3c2)cc1` [Example 65, 5-(4-methanesulfonylphenyl)-4-(naphthalene-2-yl)-[1,2]dithiol-3-thione], the inhibition at 1 µM at COX-1 amounted to 22.6%. In addition, the inhibition at 0.03 µM at COX-2 turned out to be 20.1%.

As to `CS(=O)(=O)c1ccc(-c2ssc(=S)c2-c2cccnc2)cc1` [Example 48, 5-(4-methanesulfonylphenyl)-4-(pyridine-3-yl)-[1,2]dithiol-3-thione], the inhibition at 1 µM on COX-1 was found to be 23.6%. The inhibition at 0.03 µM on COX-2 was 24.2%.

`Cc1ccc(-c2c(-c3ccc(S(C)(=O)=O)cc3)[nH][nH]c2=S)cc1` [Example 80, 5-(4-methanesulfonylphenyl)-4-p-toryl-[1,2]dihydropyrazole-3-thione]: at COX-1, the “Cyclooxygenase (COX) Inhibition (%) COX-1 (1 μM)” value amounted to 25.6%. The “Cyclooxygenase (COX) Inhibition (%) COX-2 (30 nM)” value on COX-2 is on record as 23.2%.

With `Cc1ccc(-c2c(-c3ccc(S(C)(=O)=O)cc3Cl)ssc2=S)cc1` [Example 71, 5-(2-chloro-4-methanesulfonylphenyl)-4-p-toryl-[1,2]dithiol-3-thione], the “Cyclooxygenase (COX) Inhibition (%) COX-1 (1 μM)” value at COX-1 came to 20.3%. The “Cyclooxygenase (COX) Inhibition (%) COX-2 (30 nM)” value at COX-2 is recorded as 21.0%.

On to `Cc1ccc(-c2c(-c3ccc(S(C)(=O)=O)cc3)ssc2=S)cc1` [Example 41, 5-(4-methanesulfonylphenyl)-4-p-toryl-[1,2]dithiol-3-thione], for which the “Cyclooxygenase (COX) Inhibition (%) COX-1 (1 μM)” value on COX-1 is on record as 20.1%. At COX-2, the “Cyclooxygenase (COX) Inhibition (%) COX-2 (30 nM)” value is 24.5%.

`CS(=O)(=O)c1ccc(-c2ssc(=S)c2-c2ccccn2)cc1` [Example 49, 5-(4-methanesulfonylphenyl)-4-(pyridine-2-yl)-[1,2]dithiol-3-thione]: at COX-1, the inhibition at 1 µM worked out at 28%. For the same molecule, the inhibition at 0.03 µM on COX-2 worked out at 19.5%.

Consider `CS(=O)(=O)c1ccc(-c2ssc(=S)c2-c2c(F)c(F)c(F)c(F)c2F)cc1` [Example 66, 5-(4-methanesulfonylphenyl)-4-pentafluorophenyl-[1,2]dithiol-3-thione], for which, at COX-1, the “Cyclooxygenase (COX) Inhibition (%) COX-1 (1 μM)” value amounted to 28.2%. Moreover, the “Cyclooxygenase (COX) Inhibition (%) COX-2 (30 nM)” value on COX-2 turned out to be 19.2%.

As for `COc1ccc(-c2c(-c3ccc(S(C)(=O)=O)c(F)c3)ssc2=S)cc1` [Example 78, 5-(3-fluoro-4-methanesulfonylphenyl)-4-(4-methoxyphenyl)-[1,2]dithiol-3-thione], at COX-1, the inhibition at 1 µM is 18.5%. Further, on COX-2, the inhibition at 0.03 µM worked out at 32.5%.
